The source made the active and inactive calls.
Test system: not listed separately
Test: HEp-2 cell cytotoxicity, dose response, cytotoxicity control for RSV inhibitor project, HTS (AID 2410)
Type: functional
Conditions: human respiratory syncytial virus

SMILES | CC50
COc1ccc(N2CCN(C(=O)CSc3nnc4c(C)cc5cc(C)ccc5n34)CC2)cc1 | > 50 µM (active)
CC1CC(C)CN(C(=O)c2cc3cc(Br)cc(Br)c3o2)C1 (centres undefined) | 18.9 µM (active)
CC1CCCC(NC(=O)C2CCCN2S(=O)(=O)c2cccc3nsnc23)C1C (centres undefined) | 23.6 µM (active)
O=C(O)c1cc2c(ccc3ccccc32)[nH]1 | 30.9 µM (active)
CCOc1ccccc1NC(=O)Nc1ccc(CC#N)cc1 | 28 µM (active)
Cc1cccc2cc(CN(Cc3nnnn3Cc3ccco3)C3CCCC3)c3nnnn3c12 | > 50 µM (active)
Oc1nc2ccc(Br)cc2c(-c2ccccc2)c1CN1CCOCC1 | 48.4 µM (active)
Cc1ccc(C2CC(c3cccs3)=NN2C(=O)CSc2nc3ccccc3o2)cc1 (centres undefined) | 30.2 µM (active)
O=C(Nc1ccccc1N1CCOCC1)c1cc2c(s1)CCCCC2 | > 50 µM (active)
Cc1cc(C(=O)COc2ccc(Cl)cc2Br)c(C)n1C | > 50 µM (active)
COc1ccc(-c2nc(-c3cc([N+](=O)[O-])ccc3C)c(-c3ccccc3)[nH]2)cc1OC | 21.4 µM (active)
Cc1ccc(-n2nc3c(N4CCC(C(=O)NCc5cccc(F)c5)CC4)nnc(C)c3c2C)cc1 | 32.7 µM (active)
COc1ccc2cc(S(=O)(=O)n3cnc(C)c3)ccc2c1 | > 50 µM (active)
CCOc1ccccc1NC(=O)CSc1nc2c(c(=O)n1C)SC(C)C2 (centres undefined) | 35.2 µM (active)
C/C(=N\c1ccccc1C)C1=C(O)SCC1=O | 32.3 µM (active)
C[C@]12CCC3C(CC[C@H]4CC(O)CC[C@]34C)C1CC/C2=N/O (some centres undefined) | > 50 µM (active)

Test system: Streptococcus sp. 'group A'
Test: growth inhibition of control SK(-) GAS strain, dose response, counter-screen for streptokinase expression inhibitor project, luminescence, kanamycin, BacTiterGlo, confirmation (AID 1900)
Type: functional, organism-based
Conditions: not given

SMILES | EC50
Cc1nn2c(COc3ccc(NC(=O)c4ccccc4)cc3)nnc2c2ccccc12 | 0.854 µM (active)
COc1c(N2CCN(C(S)=Nc3ccc(F)cc3)C(C)C2)c(F)cc2c(=O)c(C(=O)O)cn(C3CC3)c12 (centres undefined) | 4.5 µM (active)
CC(C)=CCc1c(O)c(CC=C(C)C)c2occ(-c3ccc(O)cc3)c(=O)c2c1O | 2.66 µM (active)

Test system: not listed separately
Test: inhibitors of intracellular T. cruzi replication, confirmation, NIH3T3 host cells, beta-gal luminescence (AID 2044);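 also: intracellular parasites grown in NIH/3T3 mouse fibroblasts as host cells; luminescent beta-galactosidase reporter signal from transgenic T. cruzi replicating inside host cells; inhibitors lower the luminescence signal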
Type: functional, cell-based
Conditions: not given

SMILES | EC50
Clc1ccc(OCCOCCN2CCCCC2)c(Br)c1 | 0.166 µM (active)
CCN1CCN(c2ccc(S(=O)(=O)N3CCOCC3)cc2NC(=O)CCC(C)C)CC1 | 1.34 µM (active)
O=S(=O)(c1ccc(Cl)cc1)N1CCN(C2CCN(Cc3ccccc3)CC2)CC1 | 1.07 µM (active)
Cc1cc(C(=O)N2CCc3c([nH]c4ccccc34)C2c2cccc(Cl)c2)nn1C (centres undefined) | 2.17 µM (active)
CCOC(=O)c1sc(NC(=O)Nc2ccccc2Cl)cc1C | 2.26 µM (active)
COc1ccc(C)cc1Nc1n[n+](-c2ccccc2)c(-c2cccc(Cl)c2Cl)s1 | 3 µM (active)
CCOc1ccc(N/C(C)=C/C(=O)c2ccc(C)o2)cc1 | 2.98 µM (active)
OCCC1CN(Cc2cccc(C(F)(F)F)c2)CCN1Cc1ccccc1 (centres undefined) | 1.33 µM (active)
CCN1CCN(CC(=O)Nc2ccc(S(=O)(=O)N3C(C)CCCC3C)cc2)CC1 (centres undefined) | 1.07 µM (active)
COC(=O)c1cc(NC(=O)c2cc(-c3ccc(Cl)cc3)oc2C(F)(F)F)ccc1N1CCOCC1 | 3.3 µM (active)
O=C(Cn1ccnc1)c1ccc(Cl)cc1 | > 30 µM (not active)
N=C(N)N/N=C/c1ccc(Cl)c([N+](=O)[O-])c1 | 0.108 µM (active)
c1ccc(Nc2nc(-c3ccncc3)cs2)nc1 | 0.526 µM (active)
Cc1nc(N2CCC(C)CC2)c2c(C)c(C(=O)Nc3ccc(C(F)(F)F)cc3)sc2n1 | 1.41 µM (active)

Test system: not listed separately
Test: cytotoxicity toward NIH3T3 fibroblasts, dose response, counter-screen, cell-based, ATP luminescence, mouse fibroblasts (AID 2010);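 also: cells exposed to compound for about 90 hours before reading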
Type: functional
Conditions: not given

SMILES | EC50
Clc1ccc(OCCOCCN2CCCCC2)c(Br)c1 | 13.2 µM (active)
CCN1CCN(c2ccc(S(=O)(=O)N3CCOCC3)cc2NC(=O)CCC(C)C)CC1 | > 60 µM (not active)
O=S(=O)(c1ccc(Cl)cc1)N1CCN(C2CCN(Cc3ccccc3)CC2)CC1 | > 60 µM (not active)
Cc1cc(C(=O)N2CCc3c([nH]c4ccccc34)C2c2cccc(Cl)c2)nn1C (centres undefined) | > 60 µM (not active)
CCOC(=O)c1sc(NC(=O)Nc2ccccc2Cl)cc1C | > 30 µM (not active)
COc1ccc(C)cc1Nc1n[n+](-c2ccccc2)c(-c2cccc(Cl)c2Cl)s1 | 15.4 µM (active)
CCOc1ccc(N/C(C)=C/C(=O)c2ccc(C)o2)cc1 | > 60 µM (not active)
OCCC1CN(Cc2cccc(C(F)(F)F)c2)CCN1Cc1ccccc1 (centres undefined) | > 60 µM (inconclusive)
CCN1CCN(CC(=O)Nc2ccc(S(=O)(=O)N3C(C)CCCC3C)cc2)CC1 (centres undefined) | > 60 µM (not active)
COC(=O)c1cc(NC(=O)c2cc(-c3ccc(Cl)cc3)oc2C(F)(F)F)ccc1N1CCOCC1 | > 60 µM (not active)
O=C(Cn1ccnc1)c1ccc(Cl)cc1 | > 30 µM (not active)
N=C(N)N/N=C/c1ccc(Cl)c([N+](=O)[O-])c1 | > 60 µM (not active)
c1ccc(Nc2nc(-c3ccncc3)cs2)nc1 | > 60 µM (not active)
Cc1nc(N2CCC(C)CC2)c2c(C)c(C(=O)Nc3ccc(C(F)(F)F)cc3)sc2n1 | > 60 µM (inconclusive)

Test system: Streptococcus
Test: Group A Streptococcus viability loss, dose response, counter-screen for streptokinase expression inhibitor project, luminescence, BacTiterGlo (AID 1915);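 also: potency for reduction of bacterial viability or growth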
Type: functional, organism-based
Conditions: not given

SMILES | EC50
Cc1nn2c(COc3ccc(NC(=O)c4ccccc4)cc3)nnc2c2ccccc12 | 0.859 µM (active)
COc1c(N2CCN(C(S)=Nc3ccc(F)cc3)C(C)C2)c(F)cc2c(=O)c(C(=O)O)cn(C3CC3)c12 (centres undefined) | 5.79 µM (active)
CC(C)=CCc1c(O)c(CC=C(C)C)c2occ(-c3ccc(O)cc3)c(=O)c2c1O | 3.28 µM (active)

Test system: not listed separately
Test: Luminescence Cell-Based Dose Retest to Confirm Inhibitors of Cancer Stem Cells. [Related pubchem assays (depositor defined):AID2717, AID2721]
Type: functional
Conditions: Homo sapiens

SMILES | AC50
CC(C)=CCc1c(O)ccc(C(=O)Cc2ccccc2)c1O | 3.82 µM (active)
CCCCNc1c(-c2ccc(SC(C)CC)cc2)nc2ccccn12 (centres undefined) | 4.29 µM (active)
Cc1cccc(-c2nc(Nc3cccc(O)c3)c3ccccc3n2)c1 | 3.88 µM (active)
CCOC(=O)c1sc(NC(=O)Nc2ccccc2Cl)cc1C | 5.37 µM (active)
O=C(NCc1ccc(Cl)cc1)c1cccc(NC(=O)c2ccccc2)c1 | 5.29 µM (active)
Cc1c(C2(O)CCCCC2)[nH]c2cc(C(F)(F)F)ccc12 | 7.81 µM (active)
O/N=C/c1cc(Cl)ccc1OCc1ccccc1Cl | 4.45 µM (active)
CC(C)=CCc1c(O)c(CC=C(C)C)c2occ(-c3ccc(O)cc3)c(=O)c2c1O | 2.62 µM (active)

Biological target: Cytochrome P450 2C19 (Homo sapiens, UniProt P33261)
Test: Cytochrome panel assay with activity outcomes. Panel member name: p450-cyp2c19 Compounds with AC50 equal or less than 10 uM are considered active
Type: functional
Conditions: not given

Chain of Cytochrome P450 2C19 (P33261 whole entry): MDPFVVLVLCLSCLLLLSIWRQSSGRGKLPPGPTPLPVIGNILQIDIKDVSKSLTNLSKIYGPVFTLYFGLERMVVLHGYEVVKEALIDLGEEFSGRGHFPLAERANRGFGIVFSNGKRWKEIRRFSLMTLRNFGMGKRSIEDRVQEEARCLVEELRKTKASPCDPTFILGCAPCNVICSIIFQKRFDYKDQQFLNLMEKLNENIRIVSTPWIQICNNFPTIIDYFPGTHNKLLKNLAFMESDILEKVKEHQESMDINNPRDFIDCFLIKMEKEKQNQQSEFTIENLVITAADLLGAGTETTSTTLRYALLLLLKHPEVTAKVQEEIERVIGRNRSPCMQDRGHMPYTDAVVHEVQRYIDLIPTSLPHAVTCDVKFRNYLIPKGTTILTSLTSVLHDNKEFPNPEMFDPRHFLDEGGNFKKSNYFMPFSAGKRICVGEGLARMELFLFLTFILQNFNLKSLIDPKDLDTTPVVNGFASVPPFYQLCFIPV

SMILES | AC50
O=C(O)C(Cc1cccs1)C(=O)O | inconclusive
CCCn1cnc2c(SCC(=O)O)nc(N)nc21 | inconclusive
C=C(Br)CN(C)CC(=C)Br | inconclusive
CC(=O)N1CCC2(CC1)CN(c1ccccc1)C2 | inconclusive
C=CCn1c(SCC(=O)NC2CCCCC2)nnc1C1CCCCC1 | inconclusive
Oc1ccccc1/N=C/c1c[nH]nc1O | inconclusive

Same assay, conditions: read-out: AC50

SMILES | AC50
FC(F)(F)c1cnc(N2CCC(=NOCc3ccc(Cl)cc3)CC2)c(Cl)c1 | 20 µM (inconclusive)
COC(=O)[C@@]1(Cc2ccc(OC)cc2)[C@H]2c3cc(C(=O)N4CCCC4)n(Cc4ccc(OC(F)(F)F)cc4)c3C[C@H]2CN1C(=O)c1ccccc1 | 7.94 µM (inconclusive)
Cc1sc2nc(SCC(=O)C(C)(C)C)n(Cc3ccco3)c(=O)c2c1C | 5.01 µM (inconclusive)
CCOC(=O)CSc1cc(C(F)(F)F)nc(-c2ccccn2)n1 | 17.8 µM (inconclusive)
COc1cccc(-c2nc(CS(=O)(=O)CC(=O)NCCCOC(C)C)c(C)o2)c1 | 17.8 µM (inconclusive)
COc1c(N2CCN(C(=S)Nc3ccc(F)cc3)C(C)C2)c(F)cc2c(=O)c(C(=O)O)cn(C3CC3)c12 (centres undefined) | 39.8 µM (inconclusive)
c1ncc(-c2ccoc2)c(NC2CC2)n1 | 39.8 µM (inconclusive)
CCNC(=Nc1ccc(Cl)cc1)c1cccnc1 | 1.78 µM (inconclusive)
COc1cccc(/N=C/c2c[nH]nc2O)c1 | 35.5 µM (inconclusive)
N#Cc1ccc(C(c2ccc(C#N)cc2)n2cncn2)cc1 [LETROZOLE] | 7.94 µM (inconclusive)

Test system: not listed separately
Test: Shn3 3'UTR reporter inhibitors, dose response, cell-based, Clone20 osteoblasts, firefly luciferase, cherry-picked (AID 624132);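 also: firefly luciferase luminescence from reporter carrying the Shn3 3'UTR in osteoblasts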
Type: functional
Conditions: not given

SMILES | AC50
CCOC(=O)c1c(NC(=O)c2nn(CC)cc2Br)sc(C)c1C | 11 µM (active)

Biological target: Cytochrome P450 2D6 (Homo sapiens, UniProt P10635);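 also: CYP2D6 member of a cytochrome P450 panel assay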
Conditions: not given

Chain of Cytochrome P450 2D6 (P10635 whole entry): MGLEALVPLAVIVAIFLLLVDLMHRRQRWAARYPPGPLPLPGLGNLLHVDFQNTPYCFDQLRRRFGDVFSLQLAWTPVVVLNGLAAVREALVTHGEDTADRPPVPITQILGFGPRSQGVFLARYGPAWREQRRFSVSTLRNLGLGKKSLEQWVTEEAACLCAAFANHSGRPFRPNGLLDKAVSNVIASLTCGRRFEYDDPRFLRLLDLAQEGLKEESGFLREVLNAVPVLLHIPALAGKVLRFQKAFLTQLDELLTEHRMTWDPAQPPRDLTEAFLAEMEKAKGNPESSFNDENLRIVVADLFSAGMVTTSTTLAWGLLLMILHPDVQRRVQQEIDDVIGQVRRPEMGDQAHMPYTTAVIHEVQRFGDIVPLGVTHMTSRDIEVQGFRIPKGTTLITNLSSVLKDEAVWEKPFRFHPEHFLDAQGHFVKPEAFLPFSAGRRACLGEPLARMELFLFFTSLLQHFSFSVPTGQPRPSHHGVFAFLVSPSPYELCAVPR

SMILES | AC50
COCC(C)NCc1cccc(C)c1 (centres undefined) | 14.1 µM (inconclusive)
Cc1ccc(N(C(C)C(=O)Nc2cc(Cl)ccc2Oc2ccccc2)S(C)(=O)=O)cc1 (centres undefined) | 15.8 µM (inconclusive)
c1ncc(-c2ccoc2)c(NC2CC2)n1 | 25.1 µM (inconclusive)

Biological target: Cytochrome P450 3A4 (Homo sapiens, UniProt P08684);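 also: CYP3A4 tested as one member of a cytochrome P450 panel screen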
Conditions: not given

Chain of Cytochrome P450 3A4 (P08684 whole entry): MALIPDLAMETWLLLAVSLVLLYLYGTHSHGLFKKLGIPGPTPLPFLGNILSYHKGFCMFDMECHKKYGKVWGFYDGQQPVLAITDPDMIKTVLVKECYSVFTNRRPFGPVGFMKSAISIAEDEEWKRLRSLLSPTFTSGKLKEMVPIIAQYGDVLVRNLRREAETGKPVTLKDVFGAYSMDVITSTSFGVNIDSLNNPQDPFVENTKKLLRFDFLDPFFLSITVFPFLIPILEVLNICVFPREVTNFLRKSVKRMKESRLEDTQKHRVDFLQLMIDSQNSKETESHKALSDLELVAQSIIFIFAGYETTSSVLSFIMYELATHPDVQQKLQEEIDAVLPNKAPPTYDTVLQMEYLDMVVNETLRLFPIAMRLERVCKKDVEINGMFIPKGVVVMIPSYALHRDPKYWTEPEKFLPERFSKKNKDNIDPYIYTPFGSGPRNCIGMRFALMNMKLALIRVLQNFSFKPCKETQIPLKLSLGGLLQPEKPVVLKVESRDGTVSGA

SMILES | AC50
CC(C)COP(=O)(c1ccc(N(C)C)cc1)C(O)c1ccccc1F (centres undefined) | 3.98 µM (inconclusive)
N#C/C(=C\c1ccc(Oc2ccc(C(F)(F)F)cc2[N+](=O)[O-])cc1)c1nc2ccccc2[nH]1 | 11.2 µM (inconclusive)
CC(C)=CCC/C(C)=C/CO/N=C1/[C@H]2O[C@@H]2[C@@H](O)[C@H]2[C@H]1CCn1c(=O)n(Cc3cc4c(cc3Cl)OCO4)c(=O)n12 | 3.98 µM (inconclusive)
ON(CCc1ccccn1)Cc1ccccc1 | 3.98 µM (inconclusive)
CC(Oc1ccc(-c2ccccc2)c(F)c1)c1ccn(S(=O)(=O)c2ccc(Cl)cc2)n1 (centres undefined) | 15.8 µM (inconclusive)
COc1ccc2c(=O)cc(-c3ccncc3)oc2c1OC | 3.98 µM (inconclusive)
C=CCOc1cccc(CNn2cnnc2S)c1 | 28.2 µM (inconclusive)
C[C@@H]1O[C@H](O[C@@H]2CC[C@@]3(C=O)[C@H]4CC[C@@]5(C)[C@@H](C6=CC(=O)OC6)CC[C@@]5(O)[C@@H]4CC[C@]3(O)C2)C[C@H](O)[C@@H]1O | 15.8 µM (inconclusive)
Oc1ccc2c3c1O[C@H]1c4oc5ccccc5c4C[C@]4(O)[C@H](C2)N(CC2CC2)CC[C@@]314 | 20 µM (inconclusive)
CCCCCOc1ccc(C(=O)NCC2(c3ccccc3)CCOCC2)cc1 | 31.6 µM (inconclusive)
CCNC(=Nc1ccc(Cl)cc1)c1cccnc1 | 22.4 µM (inconclusive)

Biological target: Cytochrome P450 2C9 (Homo sapiens, UniProt P11712)
Conditions: not given

Chain of Cytochrome P450 2C9 (P11712 whole entry): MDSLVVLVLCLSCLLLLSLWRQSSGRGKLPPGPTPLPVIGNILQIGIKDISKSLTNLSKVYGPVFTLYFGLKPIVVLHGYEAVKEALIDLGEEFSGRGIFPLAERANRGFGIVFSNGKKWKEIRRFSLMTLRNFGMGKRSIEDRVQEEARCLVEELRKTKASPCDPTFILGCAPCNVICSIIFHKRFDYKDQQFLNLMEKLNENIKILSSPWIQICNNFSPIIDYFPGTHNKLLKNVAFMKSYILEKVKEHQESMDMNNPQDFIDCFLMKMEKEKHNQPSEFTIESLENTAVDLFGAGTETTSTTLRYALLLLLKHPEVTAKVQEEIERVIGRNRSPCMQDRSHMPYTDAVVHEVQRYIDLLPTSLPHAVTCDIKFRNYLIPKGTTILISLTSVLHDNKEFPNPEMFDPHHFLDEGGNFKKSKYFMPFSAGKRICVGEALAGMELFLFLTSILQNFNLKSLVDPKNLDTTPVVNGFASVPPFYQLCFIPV

SMILES | AC50
CC(C)COP(=O)(c1ccc(N(C)C)cc1)C(O)c1ccccc1F (centres undefined) | 12.6 µM (inconclusive)
CCOC(=O)[C@@H](O)Cc1cnc2ccccc2n1 | 3.98 µM (inconclusive)
CCOC(=O)c1nnn(-c2nonc2N)c1-c1ccccc1 | 10 µM (inconclusive)
CCOC(=O)CSc1cc(C(F)(F)F)nc(-c2ccccn2)n1 | 39.8 µM (inconclusive)
CCOc1cc(NC(=O)c2cccc(C)c2)c(OCC)cc1N=C(S)NCC1CCCO1 (centres undefined) | 7.94 µM (inconclusive)
COCCn1c(=O)c(CCc2ccccc2)nc2cnc(OC)nc21 | 20 µM (inconclusive)
CN(CCc1ccccn1)Cc1ccc(Cl)cc1Cl | 6.31 µM (inconclusive)
C=CCOc1cccc(CNn2cnnc2S)c1 | 6.31 µM (inconclusive)
Cc1ccc(C(=O)N2C3C=CC(C3)C2(C(F)(F)F)C(F)(F)F)cc1 (centres undefined) | 39.8 µM (inconclusive)
COc1cccc(-c2nc(CS(=O)(=O)CC(=O)NCCCOC(C)C)c(C)o2)c1 | 11.2 µM (inconclusive)
Cc1ccc(S(=O)(=O)NCC(=O)N(CC(=O)NCc2ccco2)Cc2cccs2)cc1 | 15.8 µM (inconclusive)
C=CCn1c(SCC(=O)NC2CCCCC2)nnc1C1CCCCC1 | 28.2 µM (inconclusive)
CCCCCCCCCCCCCC(=O)O[C@H]1[C@@H](C)[C@@]2(O)[C@@H](C=C(CO)C[C@]3(O)C(=O)C(C)=C[C@@H]23)C2C(C)(C)[C@]21OC(C)=O (some centres undefined) | 10 µM (inconclusive)
COc1cccc(/N=C/c2c[nH]nc2O)c1 | 20 µM (inconclusive)
Oc1ccccc1/N=C/c1c[nH]nc1O | 8.91 µM (inconclusive)

From ChEMBL document CHEMBL1201862, “PubChem BioAssay data set” (2004)
